In ChEMBL document CHEMBL1201862, “PubChem BioAssay data set” (2004):
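Values below derive from 48-hour exposures of cells grown in 96-well plates, with endpoints linearly interpolated between the two concentrations bracketing the appropriate inhibition level. Abbreviation: GI50, concentration required for 50% inhibition of growth.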 Calls of active or inactive are those of the source. Rule as the data show it: active = GI50 up to about 1.1 µM and inactive = higher.

Legend:
Experiment in all cases: NCI tumour cell line growth inhibition, 48 h
NCI/ADR-RES = test system: NCI/ADR-RES
HCT-116 = test system: HCT-116
MDA-MB-231 = test system: MDA-MB-231
TK-10 = test system: TK-10
HOP-92 = test system: HOP-92
Malme-3M = test system: Malme-3M
OVCAR-5 = test system: OVCAR-5
PC-3 = test system: PC-3
DU-145 = test system: DU-145
CCRF-CEM = test system: CCRF-CEM
SW-620 = test system: SW-620
T47D = test system: T47D
Hs-578T = test system: Hs-578T
SF-539 = test system: SF-539
A549 = test system: A549
SN12C = test system: SN12C
SK-MEL-5 = test system: SK-MEL-5
OVCAR-8 = test system: OVCAR-8
NCI-H522 = test system: NCI-H522
HCT-15 = test system: HCT-15

Structure (SMILES): O[C@@H]1C=C[C@]23CCN(Cc4cc5c(cc42)OCO5)[C@@H]3C1
- GI50 (NCI/ADR-RES): > 100 µM (inactive)
- GI50 (HCT-116): 42.8 µM (inactive)
- GI50 (MDA-MB-231): 58.2 µM (inactive)
- GI50 (TK-10): 49.8 µM (inactive)
- GI50 (HOP-92): 65.6 µM (inactive)
- GI50 (Malme-3M): > 100 µM (inactive)
- GI50 (OVCAR-5): > 100 µM (inactive)
- GI50 (PC-3): 45.2 µM (inactive)
- GI50 (DU-145): 24.7 µM (inactive)
- GI50 (CCRF-CEM): 48.9 µM (inactive)
- GI50 (SW-620): 49 µM (inactive)
- GI50 (T47D): 39.1 µM (inactive)
- GI50 (Hs-578T): > 100 µM (inactive)
- GI50 (SF-539): > 100 µM (inactive)
- GI50 (A549): 46.6 µM (inactive)
- GI50 (SN12C): 32.7 µM (inactive)
- GI50 (SK-MEL-5): > 100 µM (inactive)
- GI50 (OVCAR-8): 54.1 µM (inactive)
- GI50 (NCI-H522): 82.4 µM (inactive)
- GI50 (HCT-15): > 100 µM

Structure (SMILES): O=C1CC(C(O)(C(F)(F)F)C(F)(F)Cl)CCC1C(O)(C(F)(F)F)C(F)(F)Cl (stereo not given)
- GI50 (NCI/ADR-RES): > 10 µM (inactive)
- GI50 (HCT-116): 7.19 µM (inactive)
- GI50 (MDA-MB-231): > 10 µM (inactive)
- GI50 (TK-10): > 10 µM (inactive)
- GI50 (HOP-92): 1.26 µM (inactive)
- GI50 (Malme-3M): > 10 µM (inactive)
- GI50 (OVCAR-5): > 10 µM (inactive)
- GI50 (PC-3): 2.68 µM (inactive)
- GI50 (DU-145): > 10 µM (inactive)
- GI50 (CCRF-CEM): > 10 µM (inactive)
- GI50 (SW-620): > 10 µM (inactive)
- GI50 (T47D): > 10 µM (inactive)
- GI50 (Hs-578T): > 10 µM (inactive)
- GI50 (SF-539): 7.18 µM (inactive)
- GI50 (A549): > 10 µM (inactive)
- GI50 (SN12C): > 10 µM (inactive)
- GI50 (SK-MEL-5): > 10 µM (inactive)
- GI50 (OVCAR-8): > 10 µM (inactive)
- GI50 (NCI-H522): 8.77 µM (inactive)
- GI50 (HCT-15): > 10 µM

Structure (SMILES): C=Cc1c(C)c(O)cc2c1-c1ccc(O)c(C)c1CC2
- GI50 (NCI/ADR-RES): 21 µM (inactive)
- GI50 (HCT-116): 14.1 µM (inactive)
- GI50 (MDA-MB-231): 23.2 µM (inactive)
- GI50 (TK-10): 13.1 µM (inactive)
- GI50 (HOP-92): 23.2 µM (inactive)
- GI50 (Malme-3M): 19.6 µM (inactive)
- GI50 (OVCAR-5): 27.2 µM (inactive)
- GI50 (PC-3): > 10 µM (inactive)
- GI50 (DU-145): 14.1 µM (inactive)
- GI50 (CCRF-CEM): 12.5 µM (inactive)
- GI50 (SW-620): 23.4 µM (inactive)
- GI50 (T47D): 10.9 µM (inactive)
- GI50 (Hs-578T): 3.11 µM (inactive)
- GI50 (SF-539): 13.5 µM (inactive)
- GI50 (A549): 19 µM (inactive)
- GI50 (SN12C): 17.5 µM (inactive)
- GI50 (SK-MEL-5): 16 µM (inactive)
- GI50 (OVCAR-8): 17.5 µM (inactive)
- GI50 (NCI-H522): 19.4 µM (inactive)
- GI50 (HCT-15): 12.2 µM

Structure (SMILES): Cc1cc(=O)n2nc(CSc3nnc(Sc4cc(O)ccc4O)s3)sc2n1
- GI50 (NCI/ADR-RES): > 100 µM (inactive)
- GI50 (HCT-116): 19.7 µM (inactive)
- GI50 (MDA-MB-231): 34.9 µM (inactive)
- GI50 (TK-10): > 100 µM (inactive)
- GI50 (HOP-92): 35.4 µM (inactive)
- GI50 (Malme-3M): 40.3 µM (inactive)
- GI50 (OVCAR-5): > 100 µM (inactive)
- GI50 (PC-3): > 100 µM (inactive)
- GI50 (DU-145): > 100 µM (inactive)
- GI50 (CCRF-CEM): 22.6 µM (inactive)
- GI50 (SW-620): 22.8 µM (inactive)
- GI50 (T47D): 32.1 µM (inactive)
- GI50 (Hs-578T): 44.9 µM (inactive)
- GI50 (SF-539): > 100 µM (inactive)
- GI50 (A549): > 100 µM (inactive)
- GI50 (SN12C): 58.1 µM (inactive)
- GI50 (SK-MEL-5): 64.1 µM (inactive)
- GI50 (OVCAR-8): 67.1 µM (inactive)
- GI50 (NCI-H522): 20.4 µM (inactive)
- GI50 (HCT-15): > 100 µM

Structure (SMILES): N=c1oc2ccccc2cc1C(=O)NC12CC3CC(CC(C3)C1)C2
- GI50 (NCI/ADR-RES): 24.2 µM (inactive)
- GI50 (HCT-116): 15.6 µM (inactive)
- GI50 (MDA-MB-231): 20.1 µM (inactive)
- GI50 (TK-10): 16 µM (inactive)
- GI50 (HOP-92): 25.8 µM (inactive)
- GI50 (Malme-3M): 32.1 µM (inactive)
- GI50 (OVCAR-5): 37.5 µM (inactive)
- GI50 (PC-3): 17.8 µM (inactive)
- GI50 (DU-145): 13.2 µM (inactive)
- GI50 (CCRF-CEM): 3.18 µM (inactive)
- GI50 (SW-620): 19.3 µM (inactive)
- GI50 (T47D): 4.52 µM (inactive)
- GI50 (Hs-578T): 32.4 µM (inactive)
- GI50 (SF-539): 16.9 µM (inactive)
- GI50 (A549): 16.2 µM (inactive)
- GI50 (SN12C): 28.2 µM (inactive)
- GI50 (SK-MEL-5): 21.2 µM (inactive)
- GI50 (OVCAR-8): 30.4 µM (inactive)
- GI50 (NCI-H522): 3.55 µM (inactive)
- GI50 (HCT-15): 12.5 µM

Structure (SMILES): CCN(CC)CCNc1ccc2ncn3c4c(OC)ccc(O)c4c(=O)c1c23
- GI50 (NCI/ADR-RES): 2.54 µM (inactive)
- GI50 (HCT-116): 1.16 µM (inactive)
- GI50 (MDA-MB-231): 13.7 µM (inactive)
- GI50 (TK-10): 33 µM (inactive)
- GI50 (HOP-92): 2.74 µM (inactive)
- GI50 (Malme-3M): 19.4 µM (inactive)
- GI50 (OVCAR-5): 42.4 µM (inactive)
- GI50 (PC-3): 10.9 µM (inactive)
- GI50 (DU-145): 19.3 µM (inactive)
- GI50 (CCRF-CEM): 4.12 µM (inactive)
- GI50 (SW-620): 3.09 µM (inactive)
- GI50 (T47D): > 100 µM (inactive)
- GI50 (Hs-578T): 92.5 µM (inactive)
- GI50 (SF-539): 6.98 µM (inactive)
- GI50 (A549): 2.86 µM (inactive)
- GI50 (SN12C): 4.82 µM (inactive)
- GI50 (SK-MEL-5): 9.51 µM (inactive)
- GI50 (OVCAR-8): 6.93 µM (inactive)
- GI50 (NCI-H522): 1.41 µM (inactive)
- GI50 (HCT-15): 3.63 µM

Structure (SMILES): C[N+](C)(C)CC1CCCCCCCCCCC1=O (stereo not given)
- GI50 (NCI/ADR-RES): > 100 µM (inactive)
- GI50 (HCT-116): > 100 µM (inactive)
- GI50 (MDA-MB-231): > 100 µM (inactive)
- GI50 (TK-10): > 100 µM (inactive)
- GI50 (HOP-92): > 100 µM (inactive)
- GI50 (Malme-3M): > 100 µM (inactive)
- GI50 (OVCAR-5): > 100 µM (inactive)
- GI50 (PC-3): > 100 µM (inactive)
- GI50 (DU-145): > 100 µM (inactive)
- GI50 (CCRF-CEM): > 100 µM (inactive)
- GI50 (SW-620): > 100 µM (inactive)
- GI50 (T47D): > 100 µM (inactive)
- GI50 (Hs-578T): > 100 µM (inactive)
- GI50 (SF-539): > 100 µM (inactive)
- GI50 (A549): > 100 µM (inactive)
- GI50 (SN12C): > 100 µM (inactive)
- GI50 (SK-MEL-5): > 100 µM (inactive)
- GI50 (OVCAR-8): > 100 µM (inactive)
- GI50 (NCI-H522): > 100 µM (inactive)
- GI50 (HCT-15): > 100 µM

Structure (SMILES): COc1cc2c(cc1OCc1ccccc1)NC(=O)[C@@H]1C[C@@H](O)CN1C2=O
- GI50 (NCI/ADR-RES): > 100 µM (inactive)
- GI50 (HCT-116): > 100 µM (inactive)
- GI50 (MDA-MB-231): 75 µM (inactive)
- GI50 (TK-10): > 100 µM (inactive)
- GI50 (HOP-92): > 100 µM (inactive)
- GI50 (Malme-3M): > 100 µM (inactive)
- GI50 (OVCAR-5): > 100 µM (inactive)
- GI50 (PC-3): > 100 µM (inactive)
- GI50 (DU-145): > 100 µM (inactive)
- GI50 (CCRF-CEM): > 100 µM (inactive)
- GI50 (SW-620): > 100 µM (inactive)
- GI50 (T47D): > 100 µM (inactive)
- GI50 (Hs-578T): > 100 µM (inactive)
- GI50 (SF-539): > 100 µM (inactive)
- GI50 (A549): > 100 µM (inactive)
- GI50 (SN12C): > 100 µM (inactive)
- GI50 (SK-MEL-5): > 100 µM (inactive)
- GI50 (OVCAR-8): > 100 µM (inactive)
- GI50 (NCI-H522): > 100 µM (inactive)
- GI50 (HCT-15): > 100 µM

Structure (SMILES): COc1cc(NCCC2CCCCN2)c2ncccc2c1 (stereo not given)
- GI50 (NCI/ADR-RES): > 100 µM (inactive)
- GI50 (HCT-116): 36 µM (inactive)
- GI50 (MDA-MB-231): 34.8 µM (inactive)
- GI50 (TK-10): > 73.6 µM (inactive)
- GI50 (HOP-92): 60.8 µM (inactive)
- GI50 (Malme-3M): 26.9 µM (inactive)
- GI50 (OVCAR-5): > 100 µM (inactive)
- GI50 (PC-3): 74.5 µM (inactive)
- GI50 (DU-145): > 76.9 µM (inactive)
- GI50 (CCRF-CEM): 25.1 µM (inactive)
- GI50 (SW-620): > 70.6 µM (inactive)
- GI50 (T47D): 0.397 µM (active)
- GI50 (Hs-578T): > 96.4 µM (inactive)
- GI50 (SF-539): > 100 µM (inactive)
- GI50 (A549): > 96.6 µM (inactive)
- GI50 (SN12C): > 49.4 µM (inactive)
- GI50 (SK-MEL-5): 25.1 µM (inactive)
- GI50 (OVCAR-8): > 100 µM (inactive)
- GI50 (NCI-H522): 55.7 µM (inactive)
- GI50 (HCT-15): > 74.3 µM
